Laboratory results taken from the NIST ThermoML archive (doi:10.1021/je300873x).

Assay: mn = molality of the nth substance listed, in mol/kg
Settings: for surface tension liquid-gas: Pendant drop shape; for electrical conductivity: Liquid, Digital conductivity meter

CCCCCCCCCCCCCC[N+](C)(C)CCO.[Br-] [N-tetradecyl-hydroxyethyl-dimethyl ammonium bromide] + O
Settings	electrical conductivity [S/m]	surface tension liquid-gas [mN/m]
298.15 K, m1 = 0.0003	–	66.02
298.15 K, m1 = 0.0006	–	60.97
298.15 K, m1 = 0.00081	–	58.35
298.15 K, m1 = 0.00101	–	55.52
298.15 K, m1 = 0.00151	–	49.52
298.15 K, m1 = 0.00201	–	45.03
298.15 K, m1 = 0.00252	–	41.15
298.15 K, m1 = 0.00258	0.0207	–
298.15 K, m1 = 0.00268	0.0215	–
298.15 K, m1 = 0.00279	0.0223	–
298.15 K, m1 = 0.00291	0.0232	–
298.15 K, m1 = 0.00302	–	38.35
298.15 K, m1 = 0.00303	0.0241	–
298.15 K, m1 = 0.00317	0.0251	–
298.15 K, m1 = 0.00332	0.0261	–
298.15 K, m1 = 0.00349	0.027	–
298.15 K, m1 = 0.00367	0.0275	–
298.15 K, m1 = 0.00388	0.028	–
298.15 K, m1 = 0.00403	–	37.57
298.15 K, m1 = 0.00411	0.0285	–
298.15 K, m1 = 0.00436	0.029	–
298.15 K, m1 = 0.00465	0.0296	–
298.15 K, m1 = 0.00499	0.0302	–
298.15 K, m1 = 0.00503	–	37.62
298.15 K, m1 = 0.00537	0.0309	–
298.15 K, m1 = 0.00582	0.0318	–
298.15 K, m1 = 0.00604	–	37.61
298.15 K, m1 = 0.00635	0.0328	–
298.15 K, m1 = 0.00698	0.034	–
298.15 K, m1 = 0.00806	–	37.61
303.15 K, m1 = 0.00258	0.0231	–
303.15 K, m1 = 0.00268	0.024	–
303.15 K, m1 = 0.00279	0.0249	–
303.15 K, m1 = 0.0029	0.026	–
303.15 K, m1 = 0.00303	0.0269	–
303.15 K, m1 = 0.00317	0.028	–
303.15 K, m1 = 0.00332	0.0292	–
303.15 K, m1 = 0.00348	0.0303	–
303.15 K, m1 = 0.00367	0.031	–
303.15 K, m1 = 0.00387	0.0316	–
303.15 K, m1 = 0.0041	0.0322	–
303.15 K, m1 = 0.00436	0.0328	–
303.15 K, m1 = 0.00465	0.0335	–
303.15 K, m1 = 0.00498	0.0342	–
303.15 K, m1 = 0.00536	0.035	–
303.15 K, m1 = 0.00581	0.036	–
303.15 K, m1 = 0.00634	0.0372	–
303.15 K, m1 = 0.00697	0.0385	–
308.15 K, m1 = 0.00258	0.0254	–
308.15 K, m1 = 0.00268	0.0263	–
308.15 K, m1 = 0.00278	0.0274	–
308.15 K, m1 = 0.0029	0.0283	–
308.15 K, m1 = 0.00303	0.0295	–
308.15 K, m1 = 0.00316	0.0308	–
308.15 K, m1 = 0.00331	0.0321	–
308.15 K, m1 = 0.00348	0.0334	–
308.15 K, m1 = 0.00366	0.0346	–
308.15 K, m1 = 0.00387	0.0352	–
308.15 K, m1 = 0.00409	0.0359	–
308.15 K, m1 = 0.00435	0.0366	–
308.15 K, m1 = 0.00464	0.0374	–
308.15 K, m1 = 0.00497	0.0383	–
308.15 K, m1 = 0.00535	0.0393	–
308.15 K, m1 = 0.0058	0.0404	–
308.15 K, m1 = 0.00633	0.0418	–
308.15 K, m1 = 0.00696	0.0435	–
313.15 K, m1 = 0.00257	0.0278	–
313.15 K, m1 = 0.00267	0.0287	–
313.15 K, m1 = 0.00278	0.0298	–
313.15 K, m1 = 0.00289	0.0311	–
313.15 K, m1 = 0.00302	0.0325	–
313.15 K, m1 = 0.00316	0.0339	–
313.15 K, m1 = 0.00331	0.0354	–
313.15 K, m1 = 0.00347	0.037	–
313.15 K, m1 = 0.00366	0.0385	–
313.15 K, m1 = 0.00386	0.0395	–
313.15 K, m1 = 0.00409	0.0405	–
313.15 K, m1 = 0.00434	0.0414	–
313.15 K, m1 = 0.00463	0.0421	–
313.15 K, m1 = 0.00496	0.0431	–
313.15 K, m1 = 0.00534	0.0441	–
313.15 K, m1 = 0.00579	0.0455	–
313.15 K, m1 = 0.00631	0.0472	–
313.15 K, m1 = 0.00695	0.0491	–
318.15 K, m1 = 0.00257	0.0307	–
318.15 K, m1 = 0.00267	0.0317	–
318.15 K, m1 = 0.00277	0.0329	–
318.15 K, m1 = 0.00289	0.0343	–
318.15 K, m1 = 0.00301	0.0356	–
318.15 K, m1 = 0.00315	0.037	–
318.15 K, m1 = 0.0033	0.0385	–
318.15 K, m1 = 0.00347	0.0407	–
318.15 K, m1 = 0.00365	0.0426	–
318.15 K, m1 = 0.00385	0.044	–
318.15 K, m1 = 0.00408	0.0454	–
318.15 K, m1 = 0.00433	0.0465	–
318.15 K, m1 = 0.00462	0.0475	–
318.15 K, m1 = 0.00495	0.0488	–
318.15 K, m1 = 0.00533	0.0499	–
318.15 K, m1 = 0.00578	0.0514	–
318.15 K, m1 = 0.0063	0.0531	–
318.15 K, m1 = 0.00693	0.0552	–
323.15 K, m1 = 0.00256	0.0332	–
323.15 K, m1 = 0.00266	0.0345	–
323.15 K, m1 = 0.00277	0.0357	–
323.15 K, m1 = 0.00288	0.0372	–
323.15 K, m1 = 0.00301	0.0389	–
323.15 K, m1 = 0.00314	0.0404	–
323.15 K, m1 = 0.00329	0.0423	–
323.15 K, m1 = 0.00346	0.0442	–
323.15 K, m1 = 0.00364	0.0465	–
323.15 K, m1 = 0.00384	0.0487	–
323.15 K, m1 = 0.00407	0.0506	–
323.15 K, m1 = 0.00432	0.0522	–
323.15 K, m1 = 0.00461	0.0535	–
323.15 K, m1 = 0.00494	0.0547	–
323.15 K, m1 = 0.00532	0.0563	–
323.15 K, m1 = 0.00576	0.0581	–
323.15 K, m1 = 0.00629	0.0598	–
323.15 K, m1 = 0.00692	0.062	–
